Laboratory results: publication PMC12364115, “High-throughput virtual screening, identification and in vitro biological evaluation of novel inhibitors of PLK1 and NRP1” (Journal of Enzyme Inhibition and Medicinal Chemistry, 2025)
One block for each compound: values may come before it.

What was measured:
PLK1 = biological target: T1, PLK1 (Homo sapiens, UniProt P53350); assay: PLK1 inhibition assay; format: biochemical
T1 construct: purchased Abcam (Cambridge, MA, USA)
Experimental: The method was as previously described. Briefly, the enzyme reaction mixture containing different doses of compounds was incubated for 90 min at room temperature. Then the mixture was transferred to a Neutravidin-coated 384-well plate and incubated for 60 min at room temperature. Then the wells were incubated with 50 μL of the antibody mixture for 1 h. The bound europium was liberated using 50 μL of Enhancement Solution.

NRP1 = biological target: T2, NRP1 (Homo sapiens, UniProt O14786); assay: NRP1 inhibition assay (125I-VEGF-A165 binding, HUVEC cells transfected with NRP1)
T2 construct: expressed in transfected cells; host or cells: HUVEC
T2 sequence (O14786 22-923): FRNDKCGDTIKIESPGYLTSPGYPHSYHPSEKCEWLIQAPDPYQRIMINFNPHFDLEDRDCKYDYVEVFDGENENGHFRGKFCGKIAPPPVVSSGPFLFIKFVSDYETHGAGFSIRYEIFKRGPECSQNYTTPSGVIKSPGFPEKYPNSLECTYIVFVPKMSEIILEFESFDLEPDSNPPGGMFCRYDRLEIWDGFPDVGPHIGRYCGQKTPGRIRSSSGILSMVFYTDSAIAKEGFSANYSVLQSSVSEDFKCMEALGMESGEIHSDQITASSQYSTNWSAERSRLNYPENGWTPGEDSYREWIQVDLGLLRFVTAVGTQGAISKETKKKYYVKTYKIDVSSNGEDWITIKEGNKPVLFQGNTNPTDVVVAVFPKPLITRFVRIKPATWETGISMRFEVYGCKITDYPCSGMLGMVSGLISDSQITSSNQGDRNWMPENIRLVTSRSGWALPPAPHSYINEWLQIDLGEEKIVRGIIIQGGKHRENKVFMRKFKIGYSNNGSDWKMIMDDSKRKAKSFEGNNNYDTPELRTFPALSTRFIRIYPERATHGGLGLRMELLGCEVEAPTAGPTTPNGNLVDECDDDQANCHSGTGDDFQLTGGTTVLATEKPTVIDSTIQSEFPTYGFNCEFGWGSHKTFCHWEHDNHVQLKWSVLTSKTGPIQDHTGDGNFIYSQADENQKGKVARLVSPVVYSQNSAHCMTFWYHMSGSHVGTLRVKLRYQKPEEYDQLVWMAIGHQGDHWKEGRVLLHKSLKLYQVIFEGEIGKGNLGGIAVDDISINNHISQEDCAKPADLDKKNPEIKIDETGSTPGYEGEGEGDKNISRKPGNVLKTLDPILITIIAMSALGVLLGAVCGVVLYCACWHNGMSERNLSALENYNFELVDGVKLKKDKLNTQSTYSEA
Experimental: The method was as previously described. Briefly, HUVEC cells transfected with NRP1 were added to a 96-well plate and after growing to confluence, and the compounds were added to each well at different concentrations. Then, the ^125I-VEGF-A165 (0.1 nM) was added to measure non-specific binding. Data curves were plotted and half maximal inhibitory concentrations (IC50) were derived for the selected compounds using Prism 6.0 software.

NCI-H460 cells = assay: MTT assay NCI-H460; format: cell-based, human
Experimental: (§1) The lung cancer cells NCI-H460 (large cell lung carcinoma), A549 (adenocarcinoma), A427 (adenocarcinoma) and normal lung cells BEAS-2B (human normal lung epithelial cells) were purchased from The American Type Culture Collection (ATCC) (Manassas, VA, USA). The cells were cultured with Roswell Park Memorial Institute (RPMI) ‐1640 medium. The temperature of the cell culture was maintained at 37 °C. Hit compounds were obtained commercially from WuXi AppTec (PLN-1, Lot NO: P112561-P1; PLN-2, Lot NO: P112561-P2; PLN-3, Lot NO: P112561-P3; PLN-4, Lot NO: P112561-P4; PLN-5, Lot NO: P112561-P5) (Table S1). The purity of PLN 1-5 was more than 98% as determined by HPLC (Supplementary material). Human PLK1 and NRP1 proteins were purchased from Abcam (Cambridge, MA, USA).
(§2) Cells were seeded in 96-well plates (5 × 10^4 cells/well) and incubated overnight. Cells were incubated with different concentrations of PLN-5 at 37 °C for 72 h. After removal of the medium, MTT stock solution (5 mg/ml) was added and the incubation continued for 4 h. After centrifugation, the insoluble crystals were dissolved in dimethyl sulfoxide and gently shaken for 15 min. Finally, absorbance was measured at 570 nm using a microplate reader. The IC50 were calculated using Prism 6.0 software.

NRP2 = biological target: T3, NRP2 (Homo sapiens, UniProt O60462); assay: In vitro selectivity assay NRP2; format: biochemical; conditions: n = 3
T3 construct: ICE Bioscience Inc (Beijing, China) (performed the assay)
T3 sequence (O60462 21-931): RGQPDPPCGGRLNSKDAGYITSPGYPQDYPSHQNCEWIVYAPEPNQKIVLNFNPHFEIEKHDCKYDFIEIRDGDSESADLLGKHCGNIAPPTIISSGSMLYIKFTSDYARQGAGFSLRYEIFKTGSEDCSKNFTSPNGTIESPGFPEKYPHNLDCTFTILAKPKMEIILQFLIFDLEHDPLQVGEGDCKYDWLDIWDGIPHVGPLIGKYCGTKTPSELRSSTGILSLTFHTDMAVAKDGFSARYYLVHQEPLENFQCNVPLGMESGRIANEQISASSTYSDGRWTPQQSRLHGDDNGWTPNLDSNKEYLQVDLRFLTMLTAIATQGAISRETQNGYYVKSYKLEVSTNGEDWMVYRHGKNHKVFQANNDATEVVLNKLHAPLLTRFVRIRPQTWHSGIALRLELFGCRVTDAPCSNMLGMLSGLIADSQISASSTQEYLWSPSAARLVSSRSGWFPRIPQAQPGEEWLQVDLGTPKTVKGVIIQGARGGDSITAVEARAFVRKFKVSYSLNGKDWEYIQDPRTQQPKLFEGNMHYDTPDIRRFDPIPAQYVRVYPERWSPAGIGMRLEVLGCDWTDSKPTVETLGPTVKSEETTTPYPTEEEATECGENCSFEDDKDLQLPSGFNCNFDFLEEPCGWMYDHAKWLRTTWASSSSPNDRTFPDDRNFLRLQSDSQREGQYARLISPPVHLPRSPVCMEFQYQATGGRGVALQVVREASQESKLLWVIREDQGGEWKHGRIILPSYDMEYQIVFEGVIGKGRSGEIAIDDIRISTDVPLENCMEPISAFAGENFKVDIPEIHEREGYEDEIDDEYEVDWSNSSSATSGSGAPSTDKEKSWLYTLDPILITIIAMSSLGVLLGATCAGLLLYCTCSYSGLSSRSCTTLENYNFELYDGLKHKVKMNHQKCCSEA
Experimental: (§3) To assess the selectivity of PLN-5, we systematically determined its inhibitory activity against PLK2, PLK3, PLK4 (homologues of PLK1) and […]. This assay was performed by ICE Bioscience Inc (Beijing, China).

PLK4 = biological target: T4, PLK4 (Homo sapiens, UniProt O00444); assay: In vitro selectivity assay PLK4; format: biochemical
T4 construct: ICE Bioscience Inc (Beijing, China) (performed the assay)
T4 sequence (O00444 1-970): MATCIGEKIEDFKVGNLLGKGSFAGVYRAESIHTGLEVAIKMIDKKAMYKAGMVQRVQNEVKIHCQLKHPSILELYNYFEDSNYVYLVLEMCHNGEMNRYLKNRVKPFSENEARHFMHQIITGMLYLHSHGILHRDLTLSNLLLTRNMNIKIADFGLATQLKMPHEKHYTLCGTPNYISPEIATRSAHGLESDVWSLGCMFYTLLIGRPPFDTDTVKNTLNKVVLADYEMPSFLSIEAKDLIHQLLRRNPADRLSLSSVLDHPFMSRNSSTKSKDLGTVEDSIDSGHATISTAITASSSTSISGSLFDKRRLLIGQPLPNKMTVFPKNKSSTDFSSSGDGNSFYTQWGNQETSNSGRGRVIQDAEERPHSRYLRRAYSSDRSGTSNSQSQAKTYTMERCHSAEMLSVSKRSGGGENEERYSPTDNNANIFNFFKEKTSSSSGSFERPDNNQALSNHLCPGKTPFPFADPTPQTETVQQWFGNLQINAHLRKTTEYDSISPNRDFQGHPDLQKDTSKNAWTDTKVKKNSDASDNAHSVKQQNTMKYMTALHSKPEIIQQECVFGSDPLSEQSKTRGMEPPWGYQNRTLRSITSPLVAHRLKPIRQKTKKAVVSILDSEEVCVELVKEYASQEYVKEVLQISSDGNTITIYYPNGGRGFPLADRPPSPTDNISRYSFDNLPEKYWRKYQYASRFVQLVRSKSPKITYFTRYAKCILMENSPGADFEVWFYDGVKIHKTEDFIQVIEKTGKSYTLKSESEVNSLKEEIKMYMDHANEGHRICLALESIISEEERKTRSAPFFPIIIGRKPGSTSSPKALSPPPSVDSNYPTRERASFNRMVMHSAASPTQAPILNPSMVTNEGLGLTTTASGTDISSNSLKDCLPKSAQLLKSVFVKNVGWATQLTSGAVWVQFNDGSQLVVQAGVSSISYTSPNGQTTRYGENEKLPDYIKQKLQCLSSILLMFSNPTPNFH
Experimental: as §3

A549 cells = assay: MTT assay A549; format: cell-based; conditions: Homo sapiens, 72 h treatment, mean ± SD, n = 3
Experimental: as §1, §2

PLK3 = biological target: T5, PLK3 (Homo sapiens, UniProt Q9H4B4); assay: In vitro selectivity assay PLK3; format: biochemical; conditions: n = 3
T5 construct: ICE Bioscience Inc (Beijing, China) (performed the assay)
T5 sequence (Q9H4B4 whole entry, species assumed): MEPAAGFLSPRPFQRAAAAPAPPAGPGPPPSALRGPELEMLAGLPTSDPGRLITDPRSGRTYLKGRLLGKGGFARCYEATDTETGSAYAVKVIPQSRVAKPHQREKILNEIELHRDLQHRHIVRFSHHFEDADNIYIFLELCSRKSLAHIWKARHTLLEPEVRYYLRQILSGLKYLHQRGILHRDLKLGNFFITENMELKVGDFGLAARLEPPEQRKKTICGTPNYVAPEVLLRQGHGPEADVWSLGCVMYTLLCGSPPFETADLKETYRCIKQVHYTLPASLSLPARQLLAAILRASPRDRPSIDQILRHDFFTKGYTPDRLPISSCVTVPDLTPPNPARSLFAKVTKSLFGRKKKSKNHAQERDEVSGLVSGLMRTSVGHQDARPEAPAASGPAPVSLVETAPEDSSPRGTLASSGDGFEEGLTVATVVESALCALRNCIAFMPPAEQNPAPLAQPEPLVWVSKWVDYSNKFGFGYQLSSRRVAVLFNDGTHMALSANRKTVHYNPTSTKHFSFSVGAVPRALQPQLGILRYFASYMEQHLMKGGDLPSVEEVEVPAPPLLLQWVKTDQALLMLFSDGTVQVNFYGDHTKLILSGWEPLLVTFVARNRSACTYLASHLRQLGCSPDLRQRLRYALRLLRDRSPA
Experimental: as §3

PLK2 = biological target: T6, PLK2 (Homo sapiens, UniProt Q9NYY3); assay: In vitro selectivity assay PLK2; format: biochemical
T6 construct: ICE Bioscience Inc (Beijing, China) (performed the assay)
T6 sequence (Q9NYY3 whole entry, species assumed): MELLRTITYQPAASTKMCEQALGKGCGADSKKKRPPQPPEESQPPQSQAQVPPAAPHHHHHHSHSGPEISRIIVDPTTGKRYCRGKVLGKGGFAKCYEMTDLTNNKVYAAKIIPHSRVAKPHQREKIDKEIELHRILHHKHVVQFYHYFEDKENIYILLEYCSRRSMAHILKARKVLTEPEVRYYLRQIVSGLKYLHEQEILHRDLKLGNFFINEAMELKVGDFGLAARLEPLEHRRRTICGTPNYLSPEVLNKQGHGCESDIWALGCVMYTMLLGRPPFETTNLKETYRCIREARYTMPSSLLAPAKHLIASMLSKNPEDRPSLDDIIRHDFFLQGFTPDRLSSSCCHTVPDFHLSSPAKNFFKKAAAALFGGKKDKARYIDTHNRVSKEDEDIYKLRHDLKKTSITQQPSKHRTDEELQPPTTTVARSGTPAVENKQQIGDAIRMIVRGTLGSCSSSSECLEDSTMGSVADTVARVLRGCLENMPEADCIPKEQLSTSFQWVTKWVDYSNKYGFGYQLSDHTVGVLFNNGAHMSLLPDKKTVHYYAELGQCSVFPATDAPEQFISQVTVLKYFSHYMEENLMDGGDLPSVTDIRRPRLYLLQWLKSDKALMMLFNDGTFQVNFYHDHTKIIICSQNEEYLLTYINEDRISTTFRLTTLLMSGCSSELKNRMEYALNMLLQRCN
Experimental: as §3

BEAS-2B cells = assay: MTT assay BEAS-2B; format: cell-based, human; conditions: normal lung cells, 72 h treatment, n = 3
Experimental: as §1, §2

A427 cells = assay: MTT assay A427; format: cell-based; conditions: Homo sapiens, A-427, 72 h treatment, mean ± SD, n = 3
Experimental: as §1, §2

T1 sequence (P53350 whole entry): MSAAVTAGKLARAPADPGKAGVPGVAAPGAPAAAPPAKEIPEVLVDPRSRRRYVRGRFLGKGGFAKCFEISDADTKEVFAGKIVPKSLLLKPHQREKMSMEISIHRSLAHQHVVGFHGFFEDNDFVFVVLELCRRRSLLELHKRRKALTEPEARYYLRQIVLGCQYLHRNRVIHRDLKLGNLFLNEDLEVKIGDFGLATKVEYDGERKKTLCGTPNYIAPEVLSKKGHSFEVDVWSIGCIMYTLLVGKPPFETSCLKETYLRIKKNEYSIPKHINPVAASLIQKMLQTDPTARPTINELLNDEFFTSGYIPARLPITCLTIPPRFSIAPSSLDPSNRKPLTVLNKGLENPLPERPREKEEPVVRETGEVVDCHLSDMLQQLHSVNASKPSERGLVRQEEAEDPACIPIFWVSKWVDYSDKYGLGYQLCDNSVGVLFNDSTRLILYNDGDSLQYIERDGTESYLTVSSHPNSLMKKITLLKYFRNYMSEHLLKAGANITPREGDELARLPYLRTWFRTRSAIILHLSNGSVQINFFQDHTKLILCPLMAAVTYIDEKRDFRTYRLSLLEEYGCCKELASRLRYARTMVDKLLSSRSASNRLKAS

IC50 (PLK1; mean ± SD, n = 3): 16.5 ± 2.86 nM
IC50 (NRP1; mean ± SD, n = 3): 24.3 ± 1.29 nM
SMILES: NC(N)=NCCC[C@H](NC(=O)CCCCCc1cncc(Nc2ncc3c(n2)-c2ccc(Cl)cc2NC(=O)C3)c1)C(=O)O [PLN-2]

IC50 (PLK1; mean ± SD, n = 3): 4.51 ± 0.26 nM
IC50 (NRP1; mean ± SD, n = 3): 7.83 ± 0.42 nM
SMILES: CCc1ccc2c(c1)NC(=O)Cc1cnc(Nc3cc(CCCN(C)CC(=O)N[C@@H](CCCN=C(N)N)C(=O)O)cnc3C)nc1-2 [PLN-4]

PLK1 (IC50, nM) (PLK1; mean ± SD, n = 3): no inhibition
IC50 (NRP1; mean ± SD, n = 3): 640 ± 20.8 nM
SMILES: NC(N)=NCCC[C@H](NC(=O)c1sccc1NS(=O)(=O)c1cccc2nsnc12)C(=O)O [EG00229, reference compound]

NRP1 (IC50, nM) (NRP1; mean ± SD, n = 3): no inhibition
SMILES: CN1CCN(c2ccc(OC(F)(F)F)c(Nc3ncc4c(n3)-c3c(c(C(N)=O)nn3CCO)CC4)c2)CC1 [Onvansertib, onvansertib, reference compound]

IC50 (PLK1; mean ± SD, n = 3): 11.4 ± 0.74 nM
IC50 (NRP1; mean ± SD, n = 3): 30.5 ± 2.55 nM
SMILES: COc1ncc(Nc2ncc3c(n2)-c2ccc(Cl)cc2NC(=O)C3)cc1CCCCCC(=O)N[C@@H](CCCN=C(N)N)C(=O)O [PLN-3]

IC50 (PLK1; mean ± SD, n = 3): 8.12 ± 0.34 nM
IC50 (NRP1; mean ± SD, n = 3): 12.7 ± 0.81 nM
SMILES: Cc1ncc(CCCN(C)CC(=O)N[C@@H](CCCN=C(N)N)C(=O)O)cc1Nc1ncc2c(n1)-c1ccc(C#N)cc1NC(=O)C2 [PLN-1]

IC50 (NCI-H460 cells; Homo sapiens, NCI-H460, 72 h treatment, MTT, mean ± SD, n = 3): 0.27 ± 0.02 µM
IC50 (PLK1; mean ± SD, n = 3): 2.07 ± 0.13 nM
PLK1 potency relative to onvansertib (PLK1; ratio of IC50 values vs positive control onvansertib): approximately 9 fold
IC50 (NRP2): > 10 µM
IC50 (PLK4): > 10000 nM
IC50 (A549 cells): 0.41 ± 0.03 µM
IC50 (NRP1; mean ± SD, n = 3): 5.15 ± 0.24 nM
NRP1 potency relative to EG00229 (NRP1; ratio of IC50 values vs positive control EG00229): ~124 fold
IC50 (PLK3): > 10 µM
IC50 (PLK2): > 10000 nM
SMILES: Cc1ncc(CCCN(C)CC(=O)N[C@@H](CCCN=C(N)N)C(=O)O)cc1Nc1ncc2c(n1)-c1ccc(Cl)cc1NC(=S)C2 [PLN-5]
cell survival rate of NCI-H460 cells (NCI-H460 cells; 2 μM compound): lowest survival rate
inhibition rate against NCI-H460 cells (NCI-H460 cells; MTT assay): more than 90%
IC50 (BEAS-2B cells; Homo sapiens, BEAS-2B): > 10 µM
IC50 (μM) BEAS-2B (BEAS-2B cells): no significant inhibitory effect
IC50 (A427 cells): 0.33 ± 0.02 µM
